Data published in US20230329236A1, “HERBICIDAL PYRIMIDINE DERIVATIVES” (MoA Technology Limited, priority 2020, published 2023).

Key:
[1] = tested on: Avena fatua (AVEFA); experiment: Post-emergence glasshouse test, visual injury, AVEFA; format: in vivo; settings: Table 4, post-emergence, 14±1 days post application
Method: (§1) Seeds of a variety of test species are grown in a sandy loam soil mixture, Lolium multiflorum (LOLMU), Amaranthus retroflexus (AMARE), Echinochloa crus-gaffi (ECHCG), Veronica persica (VERPE), Glycine max (GLXMA), Oryza sativa (ORYSA), Zea mays (ZEAMX), spring wheat (TRZAS), Ipomoea hederacea (IPOHE), Ipomoea purpurea (PHBPU), Stellaria media (STEME), Solanum nigrum (SOLNI), Digitaria sanguinalis (DIGSA), Setaria italica (SETIT), Alopecurus myosuroides (ALOMY) and Avena fatua (AVEFA).
(§2) After sowing, at growth stage BBCH 12-14 (post-emergence), the plants are sprayed with an aqueous spray solution derived from the formulation of the technical active ingredient in acetone/water (50:50) solution containing 0.5% Tween 20 (polyoxyethlyene sorbitan monolaureate, CAS RN 9005-64-5). The test compounds are applied at the required concentration of active ingredient in g/ha. The test plants are then grown in a glasshouse under controlled environmental conditions and watered regularly as required. After 14±1 days post application (for post-emergence test), the test is evaluated by assessing the percentage damage caused to the plants in comparison with the untreated plots. The biological activities for post-emergence testing are shown below (Table 3 and Table 4) as a % visual injury.

[2] = tested on: Ipomoea purpurea (PHBPU); experiment: Post-emergence glasshouse test, visual injury, PHBPU; format: in vivo; settings: Table 4, post-emergence, 14±1 days post application
Method: as §1, §2

[3] = tested on: Setaria italica (SETIT); experiment: Post-emergence glasshouse test, visual injury, SETIT; format: in vivo; settings: Table 4, post-emergence, 14±1 days post application
Method: as §1, §2

[4] = tested on: Ipomoea hederacea (IPOHE); experiment: Post-emergence glasshouse test, visual injury, IPOHE; format: in vivo; settings: Table 4, post-emergence, 14±1 days post application
Method: as §1, §2

[5] = tested on: Stellaria media (STEME); experiment: Post-emergence glasshouse test, visual injury, STEME; format: in vivo; settings: Table 4, post-emergence, 14±1 days post application
Method: as §1, §2

[6] = tested on: Glycine max (GLXMA); experiment: Post-emergence glasshouse test, visual injury, GLXMA; format: in vivo; settings: Table 4, post-emergence, 14±1 days post application
Method: as §1, §2

[7] = tested on: Amaranthus retroflexus (AMARE); experiment: Post-emergence glasshouse test, visual injury, AMARE; format: in vivo; settings: 336 h, 14±1 days post application
Method in brief: (§3)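 Plants raised in sandy loam soil were sprayed post-emergence at BBCH 12-14 with compound formulated in acetone/water (50:50) containing 0.5% Tween 20, applied at set rates in g/ha. After 14±1 days in a controlled glasshouse, damage was scored visually as percent injury versus untreated plots.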

[8] = tested on: Oryza sativa (ORYSA); experiment: Post-emergence glasshouse test, visual injury, ORYSA; format: in vivo; settings: Table 4, post-emergence, 14±1 days post application
Method: as §1, §2

[9] = tested on: Lolium multiflorum (LOLMU); experiment: Post-emergence glasshouse test, visual injury, LOLMU; format: in vivo; settings: 336 h, 14±1 days post application
Method in brief: as §3

[10] = tested on: Digitaria sanguinalis (DIGSA); experiment: Post-emergence glasshouse test, visual injury, DIGSA; format: in vivo; settings: Table 4, post-emergence, 14±1 days post application
Method: as §1, §2

[11] = tested on: Echinochloa crus-gaffi (ECHCG); experiment: Post-emergence glasshouse test, visual injury, ECHCG; format: in vivo, Echinochloa crus-galli; settings: 336 h, 14±1 days post application
Method in brief: as §3

[12] = tested on: spring wheat (TRZAS); experiment: Post-emergence glasshouse test, visual injury, TRZAS; format: in vivo; settings: Table 4, post-emergence, 14±1 days post application
Method: as §1, §2

[13] = tested on: Zea mays (ZEAMX); experiment: Post-emergence glasshouse test, visual injury, ZEAMX; format: in vivo; settings: Table 4, post-emergence, 14±1 days post application
Method: as §1, §2

[14] = tested on: Solanum nigrum (SOLNI); experiment: Post-emergence glasshouse test, visual injury, SOLNI; format: in vivo; settings: Table 4, post-emergence, 14±1 days post application
Method: as §1, §2

[15] = tested on: Alopecurus myosuroides (ALOMY); experiment: Post-emergence glasshouse test, visual injury, ALOMY; format: in vivo; settings: Table 4, post-emergence, 14±1 days post application
Method: as §1, §2

[16] = tested on: Veronica persica (VERPE); experiment: Post-emergence glasshouse test, visual injury, VERPE; format: in vivo; settings: 336 h, 14±1 days post application
Method in brief: as §3

[17] = Table 4, post-emergence, 125 g/ha
[18] = Table 4, post-emergence, 250 g/ha
[19] = Table 4, post-emergence, 1000 g/ha

Structure (SMILES): Cc1cc(-c2cnc(NCc3ccc(F)cc3)nc2C2CC2)on1 [Compound 16]
- AVEFA % visual injury ([1]; 125 g/ha): 50%
- AVEFA % visual injury ([1]; 250 g/ha): 60%
- AVEFA % visual injury ([1]; 500 g/ha): 60%
- AVEFA % visual injury ([1]; 1000 g/ha): 60%
- PHBPU % visual injury ([2]; 125 g/ha): 80%
- PHBPU % visual injury ([2]; 250 g/ha): 95%
- PHBPU % visual injury ([2]; 500 g/ha): 90%
- PHBPU % visual injury ([2]; 1000 g/ha): 90%
- SETIT % visual injury ([3]; 125 g/ha): 0%
- SETIT % visual injury ([3]; 250 g/ha): 30%
- SETIT % visual injury ([3]; 500 g/ha): 30%
- SETIT % visual injury ([3]; 1000 g/ha): 60%
- IPOHE % visual injury ([4]; 125 g/ha): 40%
- IPOHE % visual injury ([4]; 250 g/ha): 80%
- IPOHE % visual injury ([4]; 500 g/ha): 100%
- IPOHE % visual injury ([4]; 1000 g/ha): 100%
- STEME % visual injury ([5]; 125 g/ha): 100%
- STEME % visual injury ([5]; 250 g/ha): 100%
- STEME % visual injury ([5]; 500 g/ha): 100%
- STEME % visual injury ([5]; 1000 g/ha): 100%
- GLXMA % visual injury ([6]; 125 g/ha): 50%
- GLXMA % visual injury ([6]; 250 g/ha): 40%
- GLXMA % visual injury ([6]; 500 g/ha): 70%
- GLXMA % visual injury ([6]; 1000 g/ha): 50%
- pest or weed control at 500 g/ha ([7]; Table 3, post-emergence): 95%
- pest or weed control at 125 g/ha ([7]; Table 4, post-emergence): 100%
- pest or weed control at 250 g/ha ([7]; Table 4, post-emergence): 100%
- pest or weed control at 500 g/ha ([7]; Table 4, post-emergence): 100%
- pest or weed control at 1000 g/ha ([7]; Table 4, post-emergence): 100%
- ORYSA % visual injury ([8]; 125 g/ha): 60%
- ORYSA % visual injury ([8]; 250 g/ha): 90%
- ORYSA % visual injury ([8]; 500 g/ha): 70%
- ORYSA % visual injury ([8]; 1000 g/ha): 60%
- pest or weed control at 500 g/ha ([9]; Table 3, post-emergence): 0%
- pest or weed control at 125 g/ha [9, 17]: 98%
- pest or weed control at 250 g/ha [9, 18]: 90%
- pest or weed control at 500 g/ha ([9]; Table 4, post-emergence): 100%
- pest or weed control at 1000 g/ha [9, 19]: 95%
- DIGSA % visual injury ([10]; 125 g/ha): 90%
- DIGSA % visual injury ([10]; 250 g/ha): 80%
- DIGSA % visual injury ([10]; 500 g/ha): 90%
- DIGSA % visual injury ([10]; 1000 g/ha): 90%
- pest or weed control at 500 g/ha ([11]; Table 3, post-emergence): 40%
- pest or weed control at 125 g/ha [11, 17]: 80%
- pest or weed control at 250 g/ha [11, 18]: 70%
- pest or weed control at 500 g/ha ([11]; Table 4, post-emergence): 60%
- pest or weed control at 1000 g/ha [11, 19]: 90%
- TRZAS % visual injury ([12]; 125 g/ha): 30%
- TRZAS % visual injury ([12]; 250 g/ha): 30%
- TRZAS % visual injury ([12]; 500 g/ha): 50%
- TRZAS % visual injury ([12]; 1000 g/ha): 50%
- ZEAMX % visual injury ([13]; 125 g/ha): 60%
- ZEAMX % visual injury ([13]; 250 g/ha): 60%
- ZEAMX % visual injury ([13]; 500 g/ha): 50%
- ZEAMX % visual injury ([13]; 1000 g/ha): 70%
- SOLNI % visual injury ([14]; 125 g/ha): 98%
- SOLNI % visual injury ([14]; 250 g/ha): 99%
- SOLNI % visual injury ([14]; 500 g/ha): 100%
- SOLNI % visual injury ([14]; 1000 g/ha): 100%
- ALOMY % visual injury ([15]; 125 g/ha): 70%
- ALOMY % visual injury ([15]; 250 g/ha): 80%
- ALOMY % visual injury ([15]; 500 g/ha): 80%
- ALOMY % visual injury ([15]; 1000 g/ha): 80%
- pest or weed control at 500 g/ha ([16]; Table 3, post-emergence): 95%
- pest or weed control at 125 g/ha ([16]; Table 4, post-emergence): 100%
- pest or weed control at 250 g/ha ([16]; Table 4, post-emergence): 100%
- pest or weed control at 500 g/ha ([16]; Table 4, post-emergence): 100%
- pest or weed control at 1000 g/ha ([16]; Table 4, post-emergence): 100%

Structure (SMILES): Cc1cc(-c2cnc(NCc3ccncc3)nc2C2CC2)on1 [Compound 20]
- IPOHE % visual injury ([4]; 125 g/ha): 0%
- IPOHE % visual injury ([4]; 250 g/ha): 0%
- IPOHE % visual injury ([4]; 500 g/ha): 0%
- IPOHE % visual injury ([4]; 1000 g/ha): 30%
- STEME % visual injury ([5]; 125 g/ha): 0%
- STEME % visual injury ([5]; 250 g/ha): 30%
- STEME % visual injury ([5]; 500 g/ha): 40%
- STEME % visual injury ([5]; 1000 g/ha): 95%
- GLXMA % visual injury ([6]; 125 g/ha): 30%
- GLXMA % visual injury ([6]; 250 g/ha): 20%
- GLXMA % visual injury ([6]; 500 g/ha): 40%
- GLXMA % visual injury ([6]; 1000 g/ha): 50%
- pest or weed control at 500 g/ha ([7]; Table 3, post-emergence): 80%
- pest or weed control at 125 g/ha ([7]; Table 4, post-emergence): 0%
- pest or weed control at 250 g/ha ([7]; Table 4, post-emergence): 0%
- pest or weed control at 500 g/ha ([7]; Table 4, post-emergence): 50%
- pest or weed control at 1000 g/ha ([7]; Table 4, post-emergence): 90%
- ORYSA % visual injury ([8]; 125 g/ha): 50%
- ORYSA % visual injury ([8]; 250 g/ha): 60%
- ORYSA % visual injury ([8]; 500 g/ha): 30%
- ORYSA % visual injury ([8]; 1000 g/ha): 60%
- pest or weed control at 500 g/ha ([9]; Table 3, post-emergence): 0%
- pest or weed control at 500 g/ha ([11]; Table 3, post-emergence): 0%
- TRZAS % visual injury ([12]; 125 g/ha): 0%
- TRZAS % visual injury ([12]; 250 g/ha): 0%
- TRZAS % visual injury ([12]; 500 g/ha): 30%
- TRZAS % visual injury ([12]; 1000 g/ha): 20%
- ZEAMX % visual injury ([13]; 125 g/ha): 20%
- ZEAMX % visual injury ([13]; 250 g/ha): 50%
- ZEAMX % visual injury ([13]; 500 g/ha): 50%
- ZEAMX % visual injury ([13]; 1000 g/ha): 40%
- pest or weed control at 500 g/ha ([16]; Table 3, post-emergence): 30%
- pest or weed control at 125 g/ha ([16]; Table 4, post-emergence): 50%
- pest or weed control at 250 g/ha ([16]; Table 4, post-emergence): 60%
- pest or weed control at 500 g/ha ([16]; Table 4, post-emergence): 70%
- pest or weed control at 1000 g/ha ([16]; Table 4, post-emergence): 90%

Structure (SMILES): Cc1cc(-c2cnc(NC3CC3)nc2C(C)C)on1 [Compound 38]
- pest or weed control at 500 g/ha ([7]; Table 3, post-emergence): 100%
- pest or weed control at 500 g/ha ([9]; Table 3, post-emergence): 50%
- pest or weed control at 500 g/ha ([11]; Table 3, post-emergence): 60%
- pest or weed control at 500 g/ha ([16]; Table 3, post-emergence): 100%
